Test results from publication PMC117120 (BMC Biochemistry, 2002).
Numbering of substitutions follows the chain as printed. Where “and” joins values, the source holds several entries; their conditions need not be identical. Identical values can stand only once.

Key:
[1] = target: T1, V141A mutant mouse 5-HT3ASR (Mus musculus, UniProt P23979, V142A); assay: biochemical
T1 sequence (P23979 24-483 isoform P23979-2 V142A): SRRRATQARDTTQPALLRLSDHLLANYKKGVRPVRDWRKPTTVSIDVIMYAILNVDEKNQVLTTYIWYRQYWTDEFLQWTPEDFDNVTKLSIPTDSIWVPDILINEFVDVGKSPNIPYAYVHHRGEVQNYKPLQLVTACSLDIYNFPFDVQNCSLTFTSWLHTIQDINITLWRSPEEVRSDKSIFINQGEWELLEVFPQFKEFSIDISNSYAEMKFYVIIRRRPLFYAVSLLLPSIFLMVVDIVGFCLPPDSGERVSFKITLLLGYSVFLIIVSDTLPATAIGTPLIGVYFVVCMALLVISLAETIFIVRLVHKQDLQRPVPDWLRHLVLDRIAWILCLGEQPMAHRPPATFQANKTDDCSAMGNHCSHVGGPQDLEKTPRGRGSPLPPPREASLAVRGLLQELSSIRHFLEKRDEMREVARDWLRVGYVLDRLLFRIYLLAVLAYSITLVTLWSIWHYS

[2] = target: T2, Y152A mutant mouse 5-HT3ASR (Mus musculus, UniProt P23979, Y153A); assay: Inhibition of [^3H]granisetron binding, Y152A receptor; conditions: for relative increase in Ki, mutant vs wildtype: Y152A vs wildtype
T2 sequence (P23979 24-483 isoform P23979-2 Y153A): T1 sequence (P23979 24-483 isoform P23979-2 V142A) with A119V, Y130A

[3] = target: T3, V143A mutant mouse 5-HT3ASR (Mus musculus, UniProt P23979, V144A); assay: biochemical
T3 sequence (P23979 24-483 isoform P23979-2 V144A): T1 sequence (P23979 24-483 isoform P23979-2 V142A) with A119V, V121A

[4] = target: T4, E148A mutant mouse 5-HT3ASR (Mus musculus, UniProt P23979, E149A); assay: biochemical
T4 sequence (P23979 24-483 isoform P23979-2 E149A): T1 sequence (P23979 24-483 isoform P23979-2 V142A) with A119V, E126A

[5] = target: T5, Y140A mutant mouse 5-HT3ASR (Mus musculus, UniProt P23979, Y141A); assay: Inhibition of [^3H]granisetron binding, Y140A receptor; conditions: for relative increase in Ki, mutant vs wildtype: Y140A vs wildtype
T5 sequence (P23979 24-483 isoform P23979-2 Y141A): T1 sequence (P23979 24-483 isoform P23979-2 V142A) with Y118A, A119V

[6] = target: T6, N151A mutant mouse 5-HT3ASR (Mus musculus, UniProt P23979, N152A); assay: biochemical
T6 sequence (P23979 24-483 isoform P23979-2 N152A): T1 sequence (P23979 24-483 isoform P23979-2 V142A) with A119V, N129A

Compound	Ki [1]	Ki [2]	relative increase in Ki, mutant vs wildtype [2]	Ki [3]	Ki [4]	Ki [5]	relative increase in Ki, mutant vs wildtype [5]	Ki [6]
COc1cc2c3cc1Oc1cc(ccc1O)C[C@@H]1c4c(cc(OC)c(O)c4Oc4ccc(cc4)C[C@@H]3N(C)CC2)CC[N+]1(C)C [d-tc, d-tubocurarine]	4.7 ± 0.87 nM	60 ± 19 nM	10.0 ± 2.3 fold and 10 fold	22 ± 2.6 nM	14 ± 1.7 nM	300 ± 120 nM	50 ± 12 fold and 50 fold	9.3 ± 1.4 nM
c1ccc(Cn2c(N3CCNCC3)nc3ccccc32)cc1 [lerisetron]	0.2 ± 0.02 nM	150 ± 36 nM	190 ± 43 fold and 190 fold	1.5 ± 0.41 nM	2.8 ± 0.53 nM	2.1 ± 0.33 nM	4.6 fold	3.7 ± 0.62 nM
